In patent publication US7741354B2, “Inhibitors of glutaminyl cyclase” (Probiodrug AG, priority 2006, dated 2010):

Target: hQC (Homo sapiens, UniProt Q16769)
Experiment: Fluorometric (fluorescent) assay of hQC inhibition, IC50
Type: biochemical
Details: hQC inhibition; read-out: IC50
In short: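 QC activity followed at 30° C via pyroglutamyl aminopeptidase-coupled release of fluorophore, using either H-Gln-βNA (0.2 mM; ex/em 320/410 nm; 0.2 M Tris/HCl pH 8.0, 20 mM EDTA) or H-Gln-AMC (ex/em 380/460 nm; 0.05 M Tris/HCl pH 8.0, 5 mM EDTA).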

Chain of hQC (Q16769 29-361): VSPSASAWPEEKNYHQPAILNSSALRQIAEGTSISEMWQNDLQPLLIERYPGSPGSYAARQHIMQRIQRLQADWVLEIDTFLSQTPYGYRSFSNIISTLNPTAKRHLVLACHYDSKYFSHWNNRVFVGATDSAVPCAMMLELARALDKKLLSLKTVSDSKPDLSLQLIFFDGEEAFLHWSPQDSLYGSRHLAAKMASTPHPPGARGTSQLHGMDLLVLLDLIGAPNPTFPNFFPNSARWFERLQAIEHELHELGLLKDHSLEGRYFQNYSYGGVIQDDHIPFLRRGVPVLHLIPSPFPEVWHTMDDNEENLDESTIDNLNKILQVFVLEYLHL

SMILES	IC50
OCc1ccc(C(Nc2ccc3[nH]cnc3c2)c2nnnn2-c2ccccc2OCc2ccccc2)o1 (stereo not shown) [compound 143, (5-{(1H-Benzoimidazol-5-ylamino)-[1-(2-benzyloxy-phenyl)-1H-tetrazol-5-yl]-methyl}-furan-2-yl)-methanol]	4.9 µM
Fc1ccc2c(C(Nc3ccc4[nH]cnc4c3)c3nnnn3CC3CCCO3)c[nH]c2c1 (stereo not shown) [compound 144, (1H-Benzoimidazol-5-yl)-{(6-fluoro-1H-indol-3-yl)-[1-(tetrahydro-furan-2-ylmethyl)-1H-tetrazol-5-yl]-methyl}-amine]	5.8 µM
CCOC(=O)C1CCCCC1n1nnnc1C(Nc1ccc2[nH]cnc2c1)c1csc2ccccc12 (stereo not shown) [compound 145]	1.3 µM
O=[N+]([O-])c1cc(C(Nc2ccc3[nH]cnc3c2)c2nnnn2CC2CCCO2)ccc1Cl (stereo not shown) [compound 146]	3.1 µM
c1ccc(Cn2nnnc2C(Nc2ccc3[nH]cnc3c2)c2ccc3nsnc3c2)cc1 (stereo not shown) [compound 147]	1.3 µM
O=[N+]([O-])c1cc(C(Nc2ccc3[nH]cnc3c2)c2nnnn2Cc2ccccc2Cl)ccc1Cl (stereo not shown) [compound 148, (1H-Benzoimidazol-5-yl)-[[1-(2-chloro-benzyl)-1H-tetrazol-5-yl]-(4-chloro-3-nitro-phenyl)-methyl]-amine]	1.3 µM
CC(Cc1ccc2c(c1)OCO2)C(Nc1ccc2[nH]cnc2c1)c1nnnn1CC(=O)OC(C)(C)C (stereo not shown) [compound 149, {5-[3-Benzo[1,3]dioxol-5-yl-1-(1H-benzoimidazol-5-ylamino)-2-methyl-propyl]-tetrazol-1-yl}-acetic acid tert-butyl ester]	4.9 µM
CCOC(=O)C1CCCCC1n1nnnc1C(Nc1ccc2[nH]cnc2c1)c1ccc(SC)cc1 (stereo not shown) [compound 150]	4 µM
COc1ccccc1C(Nc1ccc2[nH]cnc2c1)c1nnnn1Cc1ccccc1 (stereo not shown) [compound 151]	5.8 µM
Oc1cccc(C(Nc2ccc3[nH]cnc3c2)c2nnnn2CC2CCCO2)c1 (stereo not shown) [compound 152]	9.4 µM
COc1ccccc1C(Nc1ccc2[nH]cnc2c1)c1nnnn1Cc1ccccc1Cl (stereo not shown) [compound 153]	3.1 µM
COC(=O)c1cccc(C(Nc2ccc3[nH]cnc3c2)c2nnnn2CC2CCCO2)c1 (stereo not shown) [compound 154, 3-{(1H-Benzoimidazol-5-ylamino)-[1-(tetrahydro-furan-2-ylmethyl)-1H-tetrazol-5-yl]-methyl}-benzoic acid methyl ester]	5.8 µM
CCOC(=O)C1CCCCC1n1nnnc1C(Nc1ccc2[nH]cnc2c1)c1ccc(C)c(C)c1 (stereo not shown) [compound 155]	4.9 µM
CC1(C)OCC(Cn2nnnc2C(Nc2ccc3[nH]cnc3c2)c2cnc3ccccc3c2)O1 (stereo not shown) [compound 156, (1H-Benzoimidazol-5-yl)-{[1-(2,2-dimethyl-[1,3]dioxolan-4-ylmethyl)-1H-tetrazol-5-yl]-quinolin-3-yl-methyl}-amine]	4.9 µM
CCOC(=O)C1CCCCC1n1nnnc1C(Nc1ccc2[nH]cnc2c1)c1cc(C)cc(C)c1 (stereo not shown) [compound 157]	5.8 µM
c1ccc(C(c2ccccc2)n2nnnc2C(Nc2ccc3[nH]cnc3c2)c2cccnc2)cc1 (stereo not shown) [compound 158, [(1-Benzhydryl-1H-tetrazol-5-yl)-pyridin-3-yl-methyl]-(1H-benzoimidazol-5-yl)-amine]	9.4 µM
O=c1c(C(Nc2ccc3[nH]cnc3c2)c2nnnn2CC2CCCO2)coc2ccccc12 (stereo not shown) [compound 159, 3-{(1H-Benzoimidazol-5-ylamino)-[1-(tetrahydro-furan-2-ylmethyl)-1H-tetrazol-5-yl]-mthyl}-chromen-4-one]	9.4 µM
Clc1ccc(Cn2nnnc2C(Nc2ccc3[nH]cnc3c2)c2ccc3c(c2)OCO3)cc1 (stereo not shown) [compound 160, {Benzo[1,3]dioxol-5-yl-[1-(4-chloro-benzyl)-1H-tetrazol-5-yl]-methyl}-(1H-benzoimidazol-5-yl)-amine]	0.4 µM
C/C=C/C=C/C(Nc1ccc2[nH]cnc2c1)c1nnnn1CCc1cccs1 (stereo not shown) [compound 161, (1H-Benzoimidazol-5-yl)-{(2E,4E)-1-[1-(2-thiophen-2-yl-ethyl)-1H-tetrazol-5-yl]-hexa-2,4-dienyl}-amine]	5.8 µM
CCOC(=O)C1CCCCC1n1nnnc1C(Nc1ccc2[nH]cnc2c1)c1ccc2c(c1)OCO2 (stereo not shown) [compound 162]	5.8 µM
COc1ccc(C(Nc2ccc3[nH]cnc3c2)c2nnnn2CC2CCCO2)cc1F (stereo not shown) [compound 163, (1H-Benzoimidazol-5-yl)-{(3-fluoro-4-methoxy-phenyl)-[1-(tetrahydro-furan-2-ylmethyl)-1H-tetrazol-5-yl]-methyl}-amine]	8.5 µM
Cc1ccc(C(Nc2ccc3[nH]cnc3c2)c2nnnn2CCCN2CCCC2=O)cc1C (stereo not shown) [compound 164, 1-(3-{5-[(1H-Benzoimidazol-5-ylamino)-(3,4-dimethyl-phenyl)-methyl]-tetrazol-1-yl}-propyl)-pyrrolidin-2-one]	4.9 µM

SMILES	IC50
Cc1cc(C(Nc2ccc3[nH]cnc3c2)c2nnnn2CC2COC(C)(C)O2)cc(C)c1O (stereo not shown) [compound 165, 4-{(1H-Benzoimidazol-5-ylamino)-[1-(2,2-dimethyl-[1,3]dioxolan-4-ylmethyl)-1H-tetrazol-5-yl]-methyl}-2,6-dimethyl-phenol]	5.8 µM
Clc1ccc(Cn2nnnc2C(Nc2ccc3[nH]cnc3c2)c2ccc3nsnc3c2)cc1 (stereo not shown) [compound 166]	0.4 µM
C1=CCC(C(Nc2ccc3[nH]cnc3c2)c2nnnn2CCc2cccs2)CC1 (stereo not shown) [compound 167, (1H-Benzoimidazol-5-yl)-{cyclohex-3-enyl-[1-(2-thiophen-2-yl-ethyl)-1H-tetrazol-5-yl]-methyl}-amine]	8.5 µM
CCOC(=O)C1CCCCC1n1nnnc1C(Nc1ccc2[nH]cnc2c1)c1ccc(CC)cc1 (stereo not shown) [compound 168]	5.8 µM
CCOC(=O)C1CCCCC1n1nnnc1C(Nc1ccc2[nH]cnc2c1)c1cc(Cl)ccc1O (stereo not shown) [compound 169, 2-{5-[(1H-Benzoimidazol-5-ylamino)-(5-chloro-2-hydroxy-phenyl)-methyl]-tetrazol-1-yl}-cyclohexacar-boxylic acid ethyl ester]	7.6 µM
Brc1cc(Br)cc(C(Nc2ccc3[nH]cnc3c2)c2nnnn2CC2CCCO2)c1 (stereo not shown) [compound 170, (1H-Benzoimidazol-5-yl)-{(3,5-dibromo-phenyl)-[1-(tetrahydro-furan-2-ylmethyl)-1H-tetrazol-5-yl]-methyl}-amine]	4.9 µM
CC1(C)OCC(Cn2nnnc2C(Nc2ccc3[nH]cnc3c2)c2ccc(Cl)c([N+](=O)[O-])c2)O1 (stereo not shown) [compound 171, (1H-Benzoimidazol-5-yl)-{(4-chloro-3-nitro-phenyl)-[1-(2,2-dimethyl-[1,3]dioxolan-4-ylmethyl)-1H-tetrazol-5-yl]-methyl}-amine]	8.5 µM
COc1ccc(C(Nc2ccc3[nH]cnc3c2)c2nnnn2CC(=O)OC(C)(C)C)cc1 (stereo not shown) [compound 172, {5-[(1H-Benzoimidazol-5-ylamino)-(4-methoxy-phenyl)-methyl]-tetrazol-1-yl}-acetic acid tert-butyl ester]	4 µM
C/C=C/C=C/C(Nc1ccc2[nH]cnc2c1)c1nnnn1Cc1cccnc1 (stereo not shown) [compound 173, (1H-Benzoimidazol-5-yl)-[(2E,4E)-1-(1-pyridin-3-ylmethyl-1H-tetrazol-5-yl)-hexa-2,4-dienyl]-amine]	8.5 µM
C/C=C/C=C/C(Nc1ccc2[nH]cnc2c1)c1nnnn1CC1CCCO1 (stereo not shown) [compound 174, (1H-Benzoimidazol-5-yl)-{(2E,4E)-1-[1-(tetrahydro-furan-2-ylmethyl)-1H-tetrazol-5-yl]-hexa-2,4-dienyl}-amine]	8.5 µM
Brc1cc(Br)cc(C(Nc2ccc3[nH]cnc3c2)c2nnnn2C2CCCCC2)c1 (stereo not shown) [compound 175, (1H-Benzoimidazol-5-yl)-[(1-cyclohexyl-1H-tetrazol-5-yl)-(3,5-dibromo-phenyl)-methyl]-amine]	3.1 µM
O=C1CCCN1CCCn1nnnc1C(Nc1ccc2[nH]cnc2c1)c1cc(Br)cc(Br)c1 (stereo not shown) [compound 176, 1-(3-{5-[(1H-Benzoimidazol-5-ylamino)-(3,5-dibromo-phenyl)-methyl]-tetrazol-1-yl}-propyl)-pyrrolidin-2-one]	5.8 µM
Brc1cc(Br)cc(C(Nc2ccc3[nH]cnc3c2)c2nnnn2CCc2cccs2)c1 (stereo not shown) [compound 177, (1H-Benzoimidazol-5-yl)-{(3,5-dibromo-phenyl)-[1-(2-thiophen-2-yl-ethyl)-1H-tetrazol-5-yl]-methyl}-amine]	2.2 µM
Brc1cc(Br)cc(C(Nc2ccc3[nH]cnc3c2)c2nnnn2-c2ccc(Oc3ccccc3)cc2)c1 (stereo not shown) [compound 178, (1H-Benzoimidazol-5-yl)-{(3,5-dibromo-phenyl)-[1-(4-phenoxy-phenyl)-1H-tetrazol-5-yl]-methyl}-amine]	5.8 µM
Brc1cc(Br)cc(C(Nc2ccc3[nH]cnc3c2)c2nnnn2-c2ccc3c(c2)OCCO3)c1 (stereo not shown) [compound 179, (1H-Benzoimidazol-5-yl)-{(3,5-dibromo-phenyl)-[1-(2,3-dihydro-benzo[1,4]dioxin-6-yl)-1H-tetrazol-5-yl]-methyl}-amine]	4 µM
Brc1cc(Br)cc(C(Nc2ccc3[nH]cnc3c2)c2nnnn2-c2ccccc2OCc2ccccc2)c1 (stereo not shown) [compound 180, (1H-Benzoimidazol-5-yl)-[[1-(2-benzyloxy-phenyl)-1H-tetrazol-5-yl]-(3,5-dibromo-phenyl)-methyl]-amine]	4.9 µM
c1csc(CCn2nnnc2C(Nc2ccc3[nH]cnc3c2)c2ccc3nsnc3c2)c1 (stereo not shown) [compound 181]	0.4 µM
C1=COC(C(Nc2ccc3nc[nH]c3c2)c2nnnn2CCc2cccs2)CC1 (stereo not shown) [compound 182, (1H-Benzoimidazol-5-yl)-{(3,4-dihydro-2H-pyran-2-yl)-[1-(2-thiophen-2-yl-ethyl)-1H-tetrazol-5-yl]-methyl}-amine]	5.8 µM
CCOC(=O)C1CCCCC1n1nnnc1C(Nc1ccc2[nH]cnc2c1)c1ccccc1OC (stereo not shown) [compound 183]	8.5 µM
CCOC(=O)C1CCCCC1n1nnnc1C(Nc1ccc2[nH]cnc2c1)c1ccc(OC)cc1 (stereo not shown) [compound 184]	5.8 µM
c1cncc(Cn2nnnc2C(Nc2ccc3[nH]cnc3c2)c2ccc3nsnc3c2)c1 (stereo not shown) [compound 185]	6.7 µM
